Results published in PMC8861642, “Cryo-electron microscopy reveals how acetogenins inhibit mitochondrial respiratory complex I” (The Journal of Biological Chemistry, 2022).
Like-named read-outs stand apart in the source and are kept apart here.

Columns and labels:
mouse complex I = target: T1, mouse complex I (Mus musculus, UniProt P03888+Q91WD5+Q9DC70); test: NADH:DQ assay of purified compound 1-copurified mouse complex I, initial rates against control sample; type: biochemical; conditions: first 25 s, 5 μM DQ, 0.5 μg ml−1 AOX, 200 μM NADH; after copurification with 200 μM compound 1 and size-exclusion chromatography; SD, n = 3 technical repeats; read-out: inhibition of initial rates (proportion of complex I molecules containing the inhibitor)
T1 construct: hearts were obtained from C57BL/6 mice; from tissue; host or cells: heart mitochondria of C57BL/6 mice
Protocol: To better understand the mode of acetogenin binding to complex I, the inhibitor-bound enzyme was prepared for cryo-EM analysis. The acetogenin ortholog inhibitor selected for study here is compound 1; it contains a γ-lactone group, a 12-carbon aliphatic chain (linker) that connects the γ-lactone to a central hydroxylated bis-tetrahydrofuran (THF) group, and a final 10-carbon aliphatic extension (tail) (Figs. 1 and 2). […] Furthermore, substrates (NADH and decylubiquinone, DQ) were added alongside to stimulate complex I turnover, along with an alcohol dehydrogenase and an alternative oxidase for substrate regeneration, to ensure exposure of the high-affinity binding site that may only be present in specific intermediates. Excess compound 1, substrates, and regenerating enzymes were then removed by size-exclusion chromatography to eliminate nonspecifically bound inhibitor molecules. […]
After ∼5 min at 4 °C incubation, 20 μl of the mixture was removed as a control, and the remaining sample was added to glass vials containing enough dried compound 1, from an ethanol stock, to give a final 200 μM of compound 1, resuspended with gentle pipetting. […] The specific activity of the control [measured in 0.15% asolectin (20 % soy PC), 0.15% CHAPS, and 200 μM DQ] was 9.6 ± 0.4 μmol min^−1 mg^−1.

[1] = target: complex I (NADH:ubiquinone oxidoreductase) in bovine submitochondrial particles; conditions: internal bullatacin control, cited from earlier work
[2] = ref 33, read-out: IC50* (complex I inhibition)
[3] = ref 34, read-out: IC50† (complex I inhibition)

## CCCCCCCCCCC(O)C1CCC(C2CCC(C(O)CCCCCCCCCCCCC3=CC(C)OC3=O)O2)O1 (centres unmarked) [Compound 1]
Mouse complex I
  inhibition at 200 µM: 77 ± 5%
[1]; [2]
  IC50: 1.3 nM
[1]; [3]
  IC50: 1.3 ± 0.1 nM

## CCCCCCCCCCC(O)C1CCC(C2CCC(C(O)CCCCCCCCCCCCC3=CCOC3=O)O2)O1 (centres unmarked) [Compound 2]
[1]; [2]
  IC50: 1.2 ± 0.1 nM

## CCCCCCCCCCC(O)C1CCC(C2CCC(C(O)CCCCCCCCCCCCC3=CCC(C)OC3=O)O2)O1 (centres unmarked) [Compound 3]
[1]; [2]
  IC50: 1.3 ± 0.1 nM

## CCCCCCCCCCC(O)C1CCC(C2CCC(C(CCCCCCCCCCCCC3=CC(C)OC3=O)OC(C)=O)O2)O1 (centres unmarked) [Compound 7]
[1]; [2]
  IC50: 2.1 nM

## CCCCCCCCCCC(OC(C)=O)C1CCC(C2CCC(C(CCCCCCCCCCCCC3=CC(C)OC3=O)OC(C)=O)O2)O1 (centres unmarked) [Compound 8]
[1]; [2]
  IC50: 7.2 nM

## CC1C=C(CCCCCCCCCCCCC(O)C2CCC(C3CCC(C(O)CCCCCCCCCCCCC4=CC(C)OC4=O)O3)O2)C(=O)O1 (centres unmarked) [Compound 9]
[1]; [3]
  IC50: 1.2 nM

## CC1C=C(CCCCCCCCCCCCC(O)C2CCC(C3CCC(C(O)CCCCCCCCCCCCC4=CC(C)OC4=O)O3)O2)C(=O)O1 (centres unmarked) [Compound 11]
[1]; [3]
  IC50: 1.2 ± 0.2 nM

## CC(=O)OC(CCCCCCCCCCCCC1=CC(C)OC1=O)C1CCC(C2CCC(C(O)CCCCCCCCCCCCC3=CC(C)OC3=O)O2)O1 (centres unmarked) [Compound 12]
[1]; [3]
  IC50: 2 ± 0.2 nM

## CC(=O)OC(CCCCCCCCCCCCC1=CC(C)OC1=O)C1CCC(C2CCC(C(CCCCCCCCCCCCC3=CC(C)OC3=O)OC(C)=O)O2)O1 (centres unmarked) [Compound 13]
[1]; [3]
  IC50: 18 ± 2 nM
[1]; ref 34
  IC50† (complex I inhibition): maintains its high affinity

## bullatacin [reference compound]
[1]; [2]
  IC50: 0.9 ± 0.2 nM
[1]; [3]
  IC50: 1.2 ± 0.2 nM
